What all share (assay type): cell-based, mouse
Experiment [1] deals with syno^−/− MEFs. The experiment is described as follows: DNA fragmentation, cell death detection ELISA. As to conditions: indicated doses of stimuli, FIG. 5B, p<0.01. As for the experimental part:
(§1) (A) MEFs derived from syno^+/+ and syno^−/− mice were treated with various apoptotic stimuli, including anti-Fas monoclonal antibodies (1μg/ml for 48 hours), X-irradiation (6 Gy for 72 hours), thapsigargin (1 μM for 48 hours) and tunicamycin (10 ng/ml for 48 hours), or untreated (−), in low serum (1%FCS) medium. Apoptotic cells were detected by TUNEL analysis. (B) syno^+/+ and syno^−/− MEFs were treated with indicated dose of stimuli. Apoptosis was measured by quantitation of DNA fragmentation using the cell death detection ELISA method (Boehringer Mannheim). *p<0.01. The number of apoptotic syno^−/− MEFs was higher in cultures treated with thapsigargin and tunicamycin compared with the respective syno^+/+ MEFs. (C) syno^+/+ and syno^−/− MEFs were infected with adenovirus vector (100 moi) carrying LacZ(−) or synoviolin gene(+), then treated with the same aforementioned agents. In syno^−/− MEFs, ER-stress induced apoptosis was rescued by infection with synoviolin.
Background: In an ELISA, binding on a coated surface is turned into a signal by an enzyme label.

Experiment [2] has as its system syno^−/− MEFs. Nature of the experiment: TUNEL apoptosis assay of MEFs treated with apoptotic stimuli. As to conditions: thapsigargin 1 μM 48 h, tunicamycin 10 ng/ml 48 h; for proportion of apoptotic (TUNEL-positive) cells: syno^−/− MEFs, low serum (1% FCS), anti-Fas 1 μg/ml 48 h. The protocol: (§2) Apoptosis can be induced through several pathways. To identify the apoptotic pathway that describes Synoviolin involvement, mouse embryonic fibroblasts (MEFs) isolated from syno^−/− and wild-type mice were treated in vitro with the following four apoptotic stimuli, monoclonal anti-Fas antibodies (Abs), gamma-irradiation, tunicamycin (N-glycosylation inhibitor), and thapsigargin (Ca^2-ATPase inhibitor). Under control conditions, the proportion of syno^−/− MEF apoptotic cells was higher (16±4%) than MEF wild-type (6±2%, FIG. 5A). […] Moreover, the sensitivity against ER stress-induced agents was increased in a dose-dependent fashion (FIG. 5B).
(§3) Tissues were prepared as described above. Conditioned culture cells were fixed in 10% formalin for 15 minutes and attached to APS-coated slide glasses. These specimens were subjected to TUNEL assay. TUNEL assay was performed according to the protocol provided by the manufacturer (Apoptosis in situ detection kit; Wako, Osaka, Japan).
(§4) MEFs were isolated from E10.5 embryos of syno^−/− and wild-type mice by trypsin digestion after removal of the head and internal organs. Isolated cells were cultured in Dulbecco's modified Eagle's medium containing 20% fetal calf serum (FCS).
as §1

Experiment [3] deals with wild-type MEFs. The experiment is described as above. The note with it: low serum (1% FCS), anti-Fas 1 μg/ml 48 h, thapsigargin 1 μM 48 h, tunicamycin 10 ng/ml 48 h. As for the experimental part: as §2, §3, §4, §1

With `C/C=C(/C)C(=O)O[C@H]1C(C)=C2[C@H]([C@@H]1OC(=O)CCCCCCC)[C@@](C)(OC(C)=O)C[C@H](OC(=O)CCC)[C@@]1(O)[C@H]2OC(=O)[C@@]1(C)O` [thapsigargin], the “number of apoptotic syno^−/− MEFs compared with the respective syno^+/+ MEFs” value in experiment [1] is listed as “higher”. Moreover, the “proportion of apoptotic (TUNEL-positive) cells” value in experiment [2] turned out to be 90±1%; in experiment [3], 38±7%. In experiment [2], the “increase in number of TUNEL-positive syno^−/− MEFs compared with wild-type MEFs” value is 2.4 fold.
For tunicamycin, in that order: “higher”, 56±3%, 33±7% and 1.7 fold.

Values taken from patent publication US20070059294A1, “Therapeutiv preparation for hematopoietic disease” (priority 2003, published 2007).
